For test [1], the target named is T1, LFA-1 binding to immobilized ICAM-1 (Homo sapiens, UniProt P05107+P20701).
T1 construct: made in house; host or cells: transfected 293 cells (LFA-1)
Nature of the test: LFA-1/ICAM-1 protein-protein assay (solid-phase ELISA). Particulars: read-out: LFA-1/ICAM-1 Protein-Protein Assay IC50. The procedure, abridged:
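Human 5dICAM-Ig (ICAM-1 extracellular domain–IgG Fc) coated on plates; membrane-bound LFA-1 from transfected 293 cells (280 ng/mL) added with compound in Mn2+-containing HEPES buffer pH 7.2, 2 h at 37° C. Bound LFA-1 detected via anti-β2 antibody and HRP/TMB at 450 nm; IC50s determined.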

Test [2] concerns T lymphocyte proliferation (C57BI/6 spleen cells with irradiated BALB/c spleen cells). As to the kind of experiment: Mixed lymphocyte reaction (MLR), one-way. The test is classed as cell-based, mice. To be noted: read-out: MLR IC50. The procedure, abridged: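 One-way murine MLR: C57BI/6 responder splenocytes proliferate against irradiated BALB/c stimulators while exposed to serially diluted antagonists in supplemented RPMI1640 for 3 days. Proliferation read as [3H]-thymidine uptake over a final 6 h pulse (0.5 μCi/well), scintillation counted.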

pIC50: −log10 of the molar value. Where a name gives a salt, the structure may show the parent alone. Read-outs that look alike come from different tables or passages of the source.

T1 sequence (P20701 26-1170): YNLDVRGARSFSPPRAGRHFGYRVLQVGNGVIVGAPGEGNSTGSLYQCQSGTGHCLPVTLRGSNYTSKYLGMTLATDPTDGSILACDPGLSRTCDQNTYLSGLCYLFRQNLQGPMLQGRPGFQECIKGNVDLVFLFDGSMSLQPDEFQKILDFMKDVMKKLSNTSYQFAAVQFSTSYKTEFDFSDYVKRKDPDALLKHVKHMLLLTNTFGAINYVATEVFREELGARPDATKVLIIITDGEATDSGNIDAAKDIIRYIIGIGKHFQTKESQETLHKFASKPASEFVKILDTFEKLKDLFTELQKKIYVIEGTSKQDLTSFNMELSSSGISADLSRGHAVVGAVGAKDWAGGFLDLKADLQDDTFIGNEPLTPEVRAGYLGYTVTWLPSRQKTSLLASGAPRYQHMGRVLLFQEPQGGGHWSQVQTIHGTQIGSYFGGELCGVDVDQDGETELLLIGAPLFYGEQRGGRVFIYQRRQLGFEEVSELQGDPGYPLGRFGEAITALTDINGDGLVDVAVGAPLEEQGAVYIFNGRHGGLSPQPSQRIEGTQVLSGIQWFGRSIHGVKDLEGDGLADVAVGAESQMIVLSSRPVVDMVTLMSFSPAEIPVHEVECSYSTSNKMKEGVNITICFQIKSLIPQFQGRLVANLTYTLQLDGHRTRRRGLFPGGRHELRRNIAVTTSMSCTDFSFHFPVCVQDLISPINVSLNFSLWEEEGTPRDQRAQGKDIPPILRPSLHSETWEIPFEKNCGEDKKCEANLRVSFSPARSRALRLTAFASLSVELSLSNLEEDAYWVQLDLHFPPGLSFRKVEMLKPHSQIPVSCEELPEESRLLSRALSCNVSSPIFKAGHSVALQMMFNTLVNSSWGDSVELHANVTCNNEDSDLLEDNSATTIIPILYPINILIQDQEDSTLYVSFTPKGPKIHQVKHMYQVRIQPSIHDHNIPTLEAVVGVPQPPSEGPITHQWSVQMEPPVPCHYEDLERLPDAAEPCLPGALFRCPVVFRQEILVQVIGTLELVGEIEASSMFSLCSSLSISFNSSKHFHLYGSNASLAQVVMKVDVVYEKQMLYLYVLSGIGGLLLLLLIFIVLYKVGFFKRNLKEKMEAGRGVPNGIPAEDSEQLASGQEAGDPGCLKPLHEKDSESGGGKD
T1 sequence (P05107 23-769): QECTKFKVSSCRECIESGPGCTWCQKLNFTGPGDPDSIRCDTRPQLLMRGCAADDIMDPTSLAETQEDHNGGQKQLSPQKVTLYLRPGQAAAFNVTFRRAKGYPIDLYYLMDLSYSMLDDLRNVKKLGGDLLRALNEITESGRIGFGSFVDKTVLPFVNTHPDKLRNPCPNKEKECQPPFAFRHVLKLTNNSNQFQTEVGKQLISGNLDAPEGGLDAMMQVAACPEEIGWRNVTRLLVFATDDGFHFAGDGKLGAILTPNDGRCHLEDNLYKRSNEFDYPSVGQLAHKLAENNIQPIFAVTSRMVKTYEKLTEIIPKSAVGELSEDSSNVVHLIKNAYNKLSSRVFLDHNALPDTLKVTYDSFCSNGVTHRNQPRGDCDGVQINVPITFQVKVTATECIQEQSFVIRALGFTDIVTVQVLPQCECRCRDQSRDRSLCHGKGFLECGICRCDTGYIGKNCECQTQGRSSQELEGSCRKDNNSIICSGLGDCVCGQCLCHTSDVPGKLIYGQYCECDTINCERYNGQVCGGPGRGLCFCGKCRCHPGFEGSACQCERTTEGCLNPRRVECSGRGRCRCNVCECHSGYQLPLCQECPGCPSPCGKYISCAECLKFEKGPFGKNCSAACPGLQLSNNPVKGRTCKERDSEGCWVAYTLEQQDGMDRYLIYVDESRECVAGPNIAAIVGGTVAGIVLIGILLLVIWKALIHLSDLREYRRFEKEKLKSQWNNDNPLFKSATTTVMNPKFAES

As to `O=C(O)CCCC(=O)NC[C@H](NC(=O)c1ccc(C(=O)NCc2cccc(O)c2)cc1Cl)C(=O)O` [Example 298], the pIC50 in test [1] was 8.32; in test [2] (Mus musculus, T-lymphocyte), 5.74.
The corresponding values for `Cc1ccc(C(=O)NC[C@H](NC(=O)c2ccc(C(=O)NCc3cccc4[nH]ccc34)cc2Cl)C(=O)O)s1` [Example 317] are 8.46 and 5.76.
In the case of `CC(C)C(=O)NC[C@H](NC(=O)c1ccc(C(=O)NCc2cccc(O)c2)cc1Cl)C(=O)O` [Example 194], the pIC50 in test [1] was 8.72; in test [2] (Mus musculus, T-lymphocyte), 6.10.
Take `COc1ccc(CC(=O)NC[C@H](NC(=O)c2ccc(C(=O)NCc3cccc(O)c3)cc2Cl)C(=O)O)cc1` [Example 80]: the pIC50 in test [1] was 8.22; in test [2] (Mus musculus, T-lymphocyte) it was 5.74.
As for `O=C(Cc1cccc(C(F)(F)F)c1)NC[C@H](NC(=O)c1ccc(C(=O)NCc2cccc(O)c2)cc1Cl)C(=O)O` [Example 82], the pIC50 is 8.37 in test [1] and 5.77 in test [2] (Mus musculus, T-lymphocyte).
In the case of `O=C(NC[C@H](NC(=O)c1c(Cl)cccc1Cl)C(=O)O)c1ccc(Br)s1` [Example 223], the pIC50 in test [1] was 8.19; in test [2] (Mus musculus, T-lymphocyte), 5.44.
As for `N[C@@H](Cc1c[nH]c2ccccc12)C(=O)NC[C@H](NC(=O)c1ccc(C(=O)NCc2cccc(O)c2)cc1Cl)C(=O)O` [Example 201], the pIC50 in test [1] is 8.12; in test [2] (Mus musculus, T-lymphocyte) it was 4.76.
The corresponding values for `Cc1nnsc1C(=O)NC[C@H](NC(=O)c1ccc(C(=O)NCc2cccc(O)c2)cc1Cl)C(=O)O` [Example 255] are 8.54 and 5.73.
The corresponding values for `Cc1cc(C(=O)N[C@H](C)c2cccc3ccccc23)cc(C)c1C(=O)N[C@@H](CNC(=O)c1cccs1)C(=O)O` [Example 333] are 8.46 and 6.74.
The corresponding values for `Cc1cc(C(=O)NCc2cccc(O)c2)cc(Cl)c1C(=O)N[C@@H](CNC(=O)c1ccsc1)C(=O)O` [Example 339, N-[2-chloro-4-[[[(3-hydroxyphenyl)methyl]amino]carbonyl]-6-methylbenzoyl]-3-[(thiophene-3-carbonyl)amino]-L-alanine] are 8.77 and 7.54.
As for `Cc1cc(C(=O)NCc2cccc(O)c2)ccc1C(=O)N[C@@H](CNC(=O)c1cccs1)C(=O)O` [Example 323], the pIC50 in test [1] is 8.89; in test [2] (Mus musculus, T-lymphocyte), 6.49.
In the same order, the values of `O=C(NCc1cccc2[nH]ccc12)c1ccc(C(=O)N[C@@H](CNC(=O)c2ccccc2)C(=O)O)c(Cl)c1` [Example 314, 3-(benzoylamino)-N-[2-chloro-4-[[(1H-indol-4-ylmethyl)amino]carbonyl]benzoyl]-L-alanine] are 8.72 and 6.20.
The corresponding values for `O=C(NCc1cccc(O)c1)c1cc(Cl)c(C(=O)N[C@@H](CNC(=O)c2ccsc2)C(=O)O)c(Cl)c1` [Example 343, N-[2,6-dichloro-4-[[[(3-hydroxyphenyl)methyl]amino]carbonyl]benzoyl]-3-[(thiophene-3-carbonyl)amino]-L-alanine] are 8.60 and 7.52.
The corresponding values for `O=C(CC1CCCCC1)NC[C@H](NC(=O)c1ccc(C(=O)NCc2cccc(O)c2)cc1Cl)C(=O)O` [Example 78] are 9.00 and 5.99.
Consider `Cc1cc(C(=O)NCc2cccc(O)c2)cc(Cl)c1C(=O)N[C@@H](CNC(=O)c1cc(F)cc(F)c1)C(=O)O` [Example 340, N-[2-chloro-4-[[[(3-hydroxyphenyl)methyl]amino]carbonyl]-6-methylbenzoyl]-3-[(3,5-difluorobenzoyl)amino]-L-alanine], for which the pIC50 in test [1] is 9.52; in test [2] (Mus musculus, T-lymphocyte), 7.44.
In the same order, the values of `C[C@@H](NC(=O)c1ccc(C(=O)N[C@@H](CNC(=O)c2cccs2)C(=O)O)c(Br)c1)c1cccc2ccccc12` [Example 332] are 8.32 and 5.81.
The corresponding values for `N[C@H]1CC[C@@H](C(=O)NC[C@H](NC(=O)c2ccc(C(=O)NCc3cccc(O)c3)cc2Cl)C(=O)O)CC1` [Example 264] are 8.34 and 5.71.
In the same order, the values of `CC(C)CC(=O)NC[C@H](NC(=O)c1ccc(C(=O)NCc2cccc(O)c2)cc1Cl)C(=O)O` [Example 195] are 8.70 and 6.08.
On to `Cc1cc(C(=O)NCc2cccc(O)c2)cc(C)c1C(=O)N[C@@H](CNC(=O)c1ccsc1)C(=O)O` [Example 336, N-[2,6-dimethyl-4-[[[(3-hydroxyphenyl)methyl]amino]carbonyl]benzoyl]-3-(thiophene-3-carbonyl)amino-L-alanine], for which the pIC50 is 8.68 in test [1] and 7.48 in test [2] (Mus musculus, T-lymphocyte).
As to `O=C(NC[C@H](NC(=O)c1ccc(-n2nnnc2NCc2cccc(O)c2)cc1Cl)C(=O)O)c1cccs1` [Example 321], the pIC50 in test [1] was 8.59; in test [2] (Mus musculus, T-lymphocyte) it was 6.11.
In the same order, the values of `O=C(NCc1cccc(O)c1)c1ccc(C(=O)N[C@@H](CNC(=O)C(c2ccccc2)c2ccccc2)C(=O)O)c(Cl)c1` [Example 86] are 8.48 and 5.38.
For `O=C(NC[C@H](NC(=O)c1c(F)cccc1Cl)C(=O)O)c1ccc(Br)s1` [Example 224], the pIC50 in test [1] is 7.62; in test [2] (Mus musculus, T-lymphocyte), 4.95.
In the same order, the values of `O=C(Cc1ccccc1)NC[C@H](NC(=O)c1ccc(C(=O)NCc2cccc(O)c2)cc1Cl)C(=O)O` [Example 79] are 8.54 and 5.60.
Turning to `O=C(NCc1cccc2[nH]ccc12)c1ccc(C(=O)N[C@@H](CNC(=O)c2ccoc2)C(=O)O)c(Cl)c1` [Example 316], the pIC50 is 8.89 in test [1] and 6.37 in test [2] (Mus musculus, T-lymphocyte).
As to `O=C(Cc1ccc([N+](=O)[O-])cc1)NC[C@H](NC(=O)c1ccc(C(=O)NCc2cccc(O)c2)cc1Cl)C(=O)O` [Example 81], the pIC50 in test [1] was 8.40; in test [2] (Mus musculus, T-lymphocyte), 5.78.
In the same order, the values of `NC(=O)C[C@H](N)C(=O)NC[C@H](NC(=O)c1ccc(C(=O)NCc2cccc(O)c2)cc1Cl)C(=O)O` [Example 200] are 8.54 and 5.51.
For the molecule `O=C(NCc1cccc(O)c1)c1ccc(C(=O)N[C@@H](CNC(=O)C23CC4CC(CC(C4)C2)C3)C(=O)O)c(Cl)c1` [Example 93], the pIC50 is 9.30 in test [1] and 6.28 in test [2] (Mus musculus, T-lymphocyte).
With `O=C(NCc1cccc(O)c1)c1ccc(C(=O)N[C@@H](CNC(=O)c2cccs2)C(=O)O)c(Cl)c1` [Example 305, N-[2-chloro-4-[[[(3-hydroxyphenyl)methyl]amino]carbonyl]benzoyl]-3-(thiophene-2-carbonyl)amino-L-alanine, sodium salt], the pIC50 was 9.00 in test [1] and 7.00 in test [2] (sodium salt).
As for `O=C(C[n+]1csc2ccccc21)NC[C@H](NC(=O)c1ccc(C(=O)NCc2cccc(O)c2)cc1Cl)C(=O)O` [Example 89], the pIC50 was 8.23 in test [1] and 4.98 in test [2] (Mus musculus, T-lymphocyte).
For `O=C(NCc1cccc(O)c1)c1ccc(C(=O)N[C@@H](CNC(=O)c2ccc3c(c2)S(=O)(=O)c2ccccc2C3=O)C(=O)O)c(Cl)c1` [Example 192], the pIC50 in test [1] was 8.89; in test [2] (Mus musculus, T-lymphocyte) it was 5.77.
Regarding `O=C(NCc1cccc(O)c1)c1ccc(C(=O)N[C@@H](CNC(=O)c2cnccn2)C(=O)O)c(Cl)c1` [Example 170], the pIC50 in test [1] is 8.72; in test [2] (Mus musculus, T-lymphocyte), 6.25.

Values taken from patent US20040006236A1, “Diaminopropionic acid derivatives” (priority 1999, published 2004).
